Measurements taken from ChEMBL document CHEMBL1126889, “Dopamine receptor modulation by a highly rigid spiro bicyclic peptidomimetic of Pro-Leu-Gly-NH2” (J Med Chem, 1993).
Residues, ends and D or L forms follow the SMILES beside them.

Key:
[1] = biological target: T1, Dopamine receptor (Bos taurus) (UniProt Q95136+P20288); assay: Tested for ability to enhance the binding of the dopamine receptor agonist [3H]-ADTN to striatal dopamine receptors in vitro at 10 e-6 M; type: protein assay
[2] = biological target: T1, Dopamine receptor (Bos taurus); assay: Tested for ability to enhance the binding of the dopamine receptor agonist [3H]ADTN to striatal dopamine receptors in vitro; type: protein assay

Row | Binding [1] [%] | Binding [2] [%] | Structure (SMILES)
1 | 40 |  | NC(=O)[C@H]1CS[C@@H]2C[C@]3(CCCN3C(=O)C3CCCN3)C(=O)N12 (some centres not stated)
2 |  | 26 | CC(C)C[C@H](NC(=O)[C@@H]1CCCN1)C(=O)NCC(N)=O (H-Pro-Leu-Gly-NH2)
